According to patent publication US20060142188A1 (Memory Pharmaceuticals Corporation, priority 2003, published 2006):

Assays:
[1] = target: T1, mutant (L270T) alpha7 nAchR (Macaca mulatta, UniProt Q866A2, L270T); assay: FLIPR functional measurement of mutant mkα7/L270T stably expressed in QM7 cells; format: cell-based, rhesus monkey; conditions: Fluo-3AM, FIG. 7
T1 construct: expressed in transfected cells
Method: (§1) QM 7 cells were routinely grown as monolayers in minimum essential medium 199 supplemented with 5% FBS, 2% tryptose phosphate broth, 1% DMSO, penicillin (100 IU/ml) and were passaged every 3-4 days. Transfections with either rhesus monkey wild type alpha7 nAchR (mkα7) or mutant alpha7 nAchR (mkα7/L270T) were performed using Lipofectamine PLUS Kit (Invitrogen). Twenty-four hours after the transfection, cells were split for stable selection with 1 mg/ml G418. Single colonies were isolated and propagated. The expression of mkα7/L270T was identified with FLIPR for fluorescence changes after addition of agonist. The expression of mkα7 was identified by radioligand binding to [^3H]-methyllycaconitine (Virginio, C., A., Giacometti, A. et al. (2002). Pharmacological properties of rat alpha7 nicotinic receptors expressed in native and recombinant cell systems, Eur, J. Pharmacol. 445(3), 153-161.)
Cells were seeded into 96 well black wall and clear-bottom plates (Costar) coated with poly-D-lysine at a density of 20,000 cells per well and cultured overnight. […] The fluorescence was monitored (λex=488 […]) for three minutes immediately after the compound addition. The relative fluorescence unit (RFU) was measured as peak fluorescence intensity minus basal fluorescence intensity. […]

[2] = target: T2, rhesus monkey wild-type alpha-7 nACh receptor (Macaca mulatta, UniProt Q866A2); assay: Patch clamp net charge analysis of wild-type mkα7 in stably transfected QM7 cells; format: cell-based; conditions: wild-type alpha-7 clone #1, dose response curve, FIG. 8, normalized to 1 mM ACh
T2 construct: expressed in transfected cells
Method: as §1
Stably transfected QM7 cells grown on cover slips and expressing wild-type rhesus monkey alpha7 receptors were incubated at 37° C. in the presence of 5% CO2. Individual cover slips were removed for function analysis and placed in a recording buffer consisting of 140 mM NaCl, 5 mM KCl, 10 mM HEPES, 2 mM CaCl2, 1 mM MgCl2, 100 mM glucose titrated to pH 7.3 and perfused at 2-3 ml/min. […]

Row | Structure (SMILES) | EC50 compared with nicotine [1] | EC50 [2] [µM]
1 | COc1ccc(/C=C2\CCCN=C2c2cccnc2)c(OC)c1 [GTS-21] | better or comparable to that of nicotine | –
2 | CC(=O)OCC[N+](C)(C)C [acetylcholine] | – | 38
